Results published in the supplement of paper PMC10307832.

What was measured:
Experiment in all cases: relative viability (nuclei count vs DMSO), 5 days (fraction); higher = more cells survive
HCC-366 = tested on: HCC-366
How it was run: (§1)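 Nuclei were stained with Hoechst during a one-step fixation (final 0.05% Triton X-100, 1% formaldehyde, 1 ug/ml Hoechst) carried out 5 days after dosing, then counted on 4× images. The cells, lung cancer lines in 1536-well plates, had been dosed by pin tool the day after seeding with one drug alone or a fixed anchor-drug dose plus five library-drug doses (not always all listed) in √10 steps. Relative viability is the nuclei count in treated wells divided by that in vehicle wells, and each value is the median of duplicate plates.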

NCI-H3122 = tested on: NCI-H3122
How it was run: as §1

NCI-H1703 = tested on: NCI-H1703
How it was run: as §1

IA-LM = tested on: IA-LM
How it was run: as §1

Calu-6 = tested on: Calu-6
How it was run: as §1

HCC-44 = tested on: HCC-44
How it was run: as §1

EBC-1 = tested on: EBC-1
How it was run: as §1

A549 = tested on: A549
How it was run: as §1

NCI-H1299 = tested on: NCI-H1299
How it was run: as §1

NCI-H2085 = tested on: NCI-H2085
How it was run: as §1

LOU-NH91 = tested on: LOU-NH91
How it was run: as §1

NCI-H1437 = tested on: NCI-H1437
How it was run: as §1

CCN(CC)CCCCNc1ncc2cc(-c3cc(OC)cc(OC)c3)c(NC(=O)NC(C)(C)C)nc2n1 + C[C@@H](Oc1cc(-c2cnn(C3CCNCC3)c2)cnc1N)c1c(Cl)ccc(F)c1Cl [Crizotinib] (partner 1 µM)
relative viability (HCC-366; first compound 0.01 µM): 0.632 | relative viability (HCC-366; first compound 0.03162 µM): 0.924 | relative viability (HCC-366; first compound 0.1 µM): 0.947 | relative viability (HCC-366; first compound 0.3162 µM): 0.741 | relative viability (HCC-366; first compound 1 µM): 0.512 | relative viability (NCI-H3122; first compound 0.01 µM): 0.273 | relative viability (NCI-H3122; first compound 0.03162 µM): 0.282 | relative viability (NCI-H3122; first compound 0.1 µM): 0.317 | relative viability (NCI-H3122; first compound 0.3162 µM): 0.291 | relative viability (NCI-H3122; first compound 1 µM): 0.279 | relative viability (NCI-H1703; first compound 0.01 µM): 0.495 | relative viability (NCI-H1703; first compound 0.03162 µM): 0.584 | relative viability (NCI-H1703; first compound 0.1 µM): 0.986 | relative viability (NCI-H1703; first compound 0.3162 µM): 0.586 | relative viability (NCI-H1703; first compound 1 µM): 0.799 | relative viability (IA-LM; first compound 0.01 µM): 0.766 | relative viability (IA-LM; first compound 0.03162 µM): 0.629 | relative viability (IA-LM; first compound 0.1 µM): 1.02 | relative viability (IA-LM; first compound 0.3162 µM): 0.97 | relative viability (IA-LM; first compound 1 µM): 0.932 | relative viability (Calu-6; first compound 0.01 µM): 0.943 | relative viability (Calu-6; first compound 0.03162 µM): 0.784 | relative viability (Calu-6; first compound 0.1 µM): 0.899 | relative viability (Calu-6; first compound 0.3162 µM): 1.02 | relative viability (Calu-6; first compound 1 µM): 0.712 | relative viability (HCC-44; first compound 0.01 µM): 0.775 | relative viability (HCC-44; first compound 0.03162 µM): 0.855 | relative viability (HCC-44; first compound 0.1 µM): 0.853 | relative viability (HCC-44; first compound 0.3162 µM): 0.971 | relative viability (HCC-44; first compound 1 µM): 0.946 | relative viability (EBC-1; first compound 0.01 µM): 0.209 | relative viability (EBC-1; first compound 0.03162 µM): 0.189 | relative viability (EBC-1; first compound 0.1 µM): 0.242 | relative viability (EBC-1; first compound 0.3162 µM): 0.213 | relative viability (EBC-1; first compound 1 µM): 0.187 | relative viability (A549; first compound 0.01 µM): 0.782 | relative viability (A549; first compound 0.03162 µM): 0.854 | relative viability (A549; first compound 0.1 µM): 0.961 | relative viability (A549; first compound 0.3162 µM): 0.805 | relative viability (A549; first compound 1 µM): 0.655 | relative viability (NCI-H1299; first compound 0.01 µM): 1 | relative viability (NCI-H1299; first compound 0.03162 µM): 0.912 | relative viability (NCI-H1299; first compound 0.1 µM): 1.02 | relative viability (NCI-H1299; first compound 0.3162 µM): 0.972 | relative viability (NCI-H1299; first compound 1 µM): 0.89 | relative viability (NCI-H2085; first compound 0.01 µM): 0.983 | relative viability (NCI-H2085; first compound 0.03162 µM): 0.917 | relative viability (NCI-H2085; first compound 0.1 µM): 0.943 | relative viability (NCI-H2085; first compound 0.3162 µM): 0.895 | relative viability (NCI-H2085; first compound 1 µM): 0.817 | relative viability (LOU-NH91; first compound 0.01 µM): 0.733 | relative viability (LOU-NH91; first compound 0.03162 µM): 0.723 | relative viability (LOU-NH91; first compound 0.1 µM): 0.776 | relative viability (LOU-NH91; first compound 0.3162 µM): 0.747 | relative viability (LOU-NH91; first compound 1 µM): 0.725 | relative viability (NCI-H1437; first compound 0.01 µM): 1.12 | relative viability (NCI-H1437; first compound 0.03162 µM): 0.993 | relative viability (NCI-H1437; first compound 0.1 µM): 0.987 | relative viability (NCI-H1437; first compound 0.3162 µM): 1.16 | relative viability (NCI-H1437; first compound 1 µM): 0.756

O=c1cc(-c2cccc3c2Sc2ccccc2S3)oc(N2CCOCC2)c1 + C[C@@H](Oc1cc(-c2cnn(C3CCNCC3)c2)cnc1N)c1c(Cl)ccc(F)c1Cl [Crizotinib] (partner 1 µM)
relative viability (HCC-366; first compound 0.08 µM): 0.53 | relative viability (HCC-366; first compound 0.253 µM): 0.731 | relative viability (HCC-366; first compound 0.8 µM): 0.725 | relative viability (HCC-366; first compound 2.53 µM): 0.498 | relative viability (HCC-366; first compound 8 µM): 1.1 | relative viability (NCI-H3122; first compound 0.08 µM): 0.324 | relative viability (NCI-H3122; first compound 0.253 µM): 0.266 | relative viability (NCI-H3122; first compound 0.8 µM): 0.24 | relative viability (NCI-H3122; first compound 2.53 µM): 0.3 | relative viability (NCI-H3122; first compound 8 µM): 0.323 | relative viability (NCI-H1703; first compound 0.08 µM): 0.463 | relative viability (NCI-H1703; first compound 0.253 µM): 0.519 | relative viability (NCI-H1703; first compound 0.8 µM): 0.99 | relative viability (NCI-H1703; first compound 2.53 µM): 1.01 | relative viability (NCI-H1703; first compound 8 µM): 0.777 | relative viability (IA-LM; first compound 0.08 µM): 0.899 | relative viability (IA-LM; first compound 0.253 µM): 0.971 | relative viability (IA-LM; first compound 0.8 µM): 0.847 | relative viability (IA-LM; first compound 8 µM): 0.9 | relative viability (Calu-6; first compound 0.08 µM): 0.725 | relative viability (Calu-6; first compound 0.253 µM): 0.839 | relative viability (Calu-6; first compound 0.8 µM): 0.969 | relative viability (Calu-6; first compound 2.53 µM): 0.692 | relative viability (Calu-6; first compound 8 µM): 0.733 | relative viability (HCC-44; first compound 0.08 µM): 0.811 | relative viability (HCC-44; first compound 0.253 µM): 0.886 | relative viability (HCC-44; first compound 0.8 µM): 0.83 | relative viability (HCC-44; first compound 2.53 µM): 0.859 | relative viability (HCC-44; first compound 8 µM): 0.854 | relative viability (EBC-1; first compound 0.08 µM): 0.212 | relative viability (EBC-1; first compound 0.253 µM): 0.175 | relative viability (EBC-1; first compound 0.8 µM): 0.156 | relative viability (EBC-1; first compound 2.53 µM): 0.182 | relative viability (EBC-1; first compound 8 µM): 0.26 | relative viability (A549; first compound 0.08 µM): 0.706 | relative viability (A549; first compound 0.253 µM): 1.11 | relative viability (A549; first compound 0.8 µM): 0.765 | relative viability (A549; first compound 2.53 µM): 0.691 | relative viability (A549; first compound 8 µM): 0.578 | relative viability (NCI-H1299; first compound 0.08 µM): 0.999 | relative viability (NCI-H1299; first compound 0.253 µM): 0.977 | relative viability (NCI-H1299; first compound 0.8 µM): 1 | relative viability (NCI-H1299; first compound 2.53 µM): 0.956 | relative viability (NCI-H1299; first compound 8 µM): 0.835 | relative viability (NCI-H2085; first compound 0.08 µM): 0.913 | relative viability (NCI-H2085; first compound 0.253 µM): 1.06 | relative viability (NCI-H2085; first compound 0.8 µM): 0.939 | relative viability (NCI-H2085; first compound 2.53 µM): 0.832 | relative viability (NCI-H2085; first compound 8 µM): 0.93 | relative viability (LOU-NH91; first compound 0.08 µM): 0.727 | relative viability (LOU-NH91; first compound 0.253 µM): 0.718 | relative viability (LOU-NH91; first compound 0.8 µM): 0.707 | relative viability (LOU-NH91; first compound 2.53 µM): 0.702 | relative viability (LOU-NH91; first compound 8 µM): 0.776 | relative viability (NCI-H1437; first compound 0.08 µM): 1.09 | relative viability (NCI-H1437; first compound 0.253 µM): 1.18 | relative viability (NCI-H1437; first compound 0.8 µM): 1.24 | relative viability (NCI-H1437; first compound 2.53 µM): 0.899 | relative viability (NCI-H1437; first compound 8 µM): 1.07
